The results in this text go back to patent publication US11667632B2, “2-(1H-indazol-3-yl)-3H-imidazo[4,5-C]pyridines and their anti-inflammatory uses thereof” (BioSplice Therapeutics, Inc., priority 2015, dated 2023).

The test system of the first experiment is IL-6. As to the kind of experiment: Inhibition of IL-6 in LPS-stimulated human monocyte cells (THP-1), HTRF. The experiment is classed as cell-based. The note with it: Homo sapiens; THP-1 cells, LPS 500 ng/mL, IL-6 by HTRF. The procedure: Human Monocyte Cell Culture: A human monocyte cell line (THP-1 cells; Catalog #TIB-202, ATCC, Manassas, Va.) was cultured in Roswell Park Memorial Institute (RPMI) 1640 Medium (Catalog #21870-100, Buffalo, N.Y.) with 1% L-glutamine, 1% HEPES, 1% sodium pyruvate, 2% sodium bicarbonate supplemented with 100 units/mL penicillin, 50 μg/mL streptomycin, 2-mercaptoethanol (0.05 mM) [basal medium] and 10% fetal bovine serum (Catalog #16140089, Life Technologies, Carlsbad, Calif.) at 37° C. and 5% CO2.
Compound Screening: THP-1 cells were cultured in basal media with 1% FBS for 24 hours before the start of the assay. Each compound of Formula (I) was dissolved in DMSO as a 10 mM stock and used to prepare compound source plates. Serial dilution (1:3, 10-point dose-response curves starting from 10 μM) and compound transfer was performed using the ECHO 550 (Labcyte, Sunnyvale, Calif.) into 384-well white low volume assay plates (Greiner Bio-One) with appropriate DMSO backfill for a final DMSO concentration of 0.1%. THP-1 cells were plated at 5000 cells/well in the 384-well plates and incubated at 37° C. for 2 h. 500 ng/mL of LPS was added after 2 hours and cells were incubated for another 22 hours at 37° C. Plates were spun in a centrifuge for 1 minute at 10,000 rpm and a mixture of anti-IL-6 XL665, and anti-IL-6 Cryptate diluted in reconstitution buffer (Cisbio Inc.) was added to each well. Following incubation for 3 hrs at room temperature, homogeneous time-resolved fluorescence (HTRF) was measured using the Envision (Perkin Elmer) at 665 nm and […]. The ratio of fluorescence at 665 nm to 620 nm was used as a readout for IL-6 quantification. All samples were processed in duplicate. Readings were normalized to DMSO treated cells and normalized activities were utilized for EC50 calculations using the dose-response log (inhibitor) vs. response -variable slope (four parameters) nonlinear regression feature available in GraphPad Prism 5.0 (or Dotmatics). For EC50 of >10 μM, the percent inhibition at 10 μM is provided.
For orientation: Time-resolved FRET reads energy transfer from a long-lived donor to a nearby acceptor.
As to `CC(C)CC(=O)Nc1cncc(-c2ccc3[nH]nc(-c4nc5c(N6CCN(C)CC6)cncc5[nH]4)c3c2)c1` [Compound 1], the response was half-maximal at 451 nM (EC50).

On to `CC(C)C(=O)Nc1cncc(-c2ccc3[nH]nc(-c4nc5c(N6CCN(C)CC6)cncc5[nH]4)c3c2)c1` [Compound 2], for which the response was half-maximal at 290 nM (EC50). This EC50 is about 1.6-fold lower than that of the compound before. `CN(C)Cc1cncc(-c2ccc3[nH]nc(-c4nc5c(N6CCN(C)CC6)cncc5[nH]4)c3c2)c1` [Compound 3]: a half-maximal response (EC50) required 273 nM. The same measure, in the same setting: to `CN1CCN(c2cncc3[nH]c(-c4n[nH]c5ccc(-c6cncc(N7CCOCC7)c6)cc45)nc23)CC1` [Compound 5] belongs 349 nM; to `c1cncc(-c2ccc3[nH]nc(-c4nc5c(N6CCOCC6)cncc5[nH]4)c3c2)c1` [Compound 6], 232 nM; to `CN1CCN(c2cncc(-c3ccc4[nH]nc(-c5nc6ccncc6[nH]5)c4c3)c2)CC1` [Compound 7], 2430 nM. Still for that read-out and setting: to `CC(C)C(=O)Nc1cncc(-c2ccc3[nH]nc(-c4nc5ccncc5[nH]4)c3c2)c1` [Compound 9] belongs 2260 nM. On the same count and under the same terms, to `CC(C)CC(=O)Nc1cncc(-c2ccc3[nH]nc(-c4nc5c(-c6ccccc6F)cncc5[nH]4)c3c2)c1` [Compound 11] belongs 33 nM; to `CC(C)CC(=O)Nc1cncc(-c2ccc3[nH]nc(-c4nc5c(-c6ccc(F)cc6)cncc5[nH]4)c3c2)c1` [Compound 12], 45 nM; to `Fc1cccc(-c2cncc3[nH]c(-c4n[nH]c5ccc(-c6cccnc6)cc45)nc23)c1` [Compound 15], 23 nM. For the compound `CN(C)Cc1cncc(-c2ccc3[nH]nc(-c4nc5c(-c6cncc(F)c6)cncc5[nH]4)c3c2)c1` [Compound 16], the EC50 (as a rule, the concentration giving half of the maximal effect) came out at 134 nM. The same measure, in the same setting: to `CCC(=O)Nc1cncc(-c2ccc3[nH]nc(-c4nc5c(-c6cncc(F)c6)cncc5[nH]4)c3c2)c1` [Compound 20] belongs 15 nM; to `CCC(=O)Nc1cncc(-c2ccc3[nH]nc(-c4nc5c(-c6cccc(F)c6)cncc5[nH]4)c3c2)c1` [Compound 24], 19 nM. On the same count and under the same terms, to `CC(C)C(=O)Nc1cncc(-c2ccc3[nH]nc(-c4nc5c(-c6ccccc6F)cncc5[nH]4)c3c2)c1` [Compound 31] belongs 14 nM; to `O=C(Cc1ccccc1)Nc1cncc(-c2ccc3[nH]nc(-c4nc5c(-c6cccc(F)c6)cncc5[nH]4)c3c2)c1` [Compound 86], 42 nM; to `CN(C)Cc1cncc(-c2ccc3[nH]nc(-c4nc5c(-c6cccc(F)c6)cncc5[nH]4)c3c2)c1` [Compound 89], 44 nM.

As to `CC(C)(C)CC(=O)Nc1cncc(-c2ccc3[nH]nc(-c4nc5c(-c6cccc(F)c6)cncc5[nH]4)c3c2)c1` [Compound 90], the 50% effective concentration (EC50) is 42 nM. The EC50 values of the last two compounds are within 1.5-fold of each other.

The compound `O=C(Nc1cncc(-c2ccc3[nH]nc(-c4nc5c(-c6cccc(F)c6)cncc5[nH]4)c3c2)c1)C1CC1` [Compound 91] yielded an EC50 of 19 nM. Still for that read-out and setting: to `O=C(Nc1cncc(-c2ccc3[nH]nc(-c4nc5c(-c6cccc(F)c6)cncc5[nH]4)c3c2)c1)C1CCCCC1` [Compound 94] belongs 19 nM; to `Nc1cncc(-c2ccc3[nH]nc(-c4nc5c(-c6ccc(F)cc6)cncc5[nH]4)c3c2)c1` [Compound 97], 122 nM.

For `Cc1ccncc1-c1ccc2[nH]nc(-c3nc4c(-c5ccc(F)cc5)cncc4[nH]3)c2c1` [Compound 99], a half-maximal effect (EC50) was put at 40 nM. Take `CC(C)(C)C(=O)Nc1cncc(-c2ccc3[nH]nc(-c4nc5c(-c6ccc(F)cc6)cncc5[nH]4)c3c2)c1` [Compound 102]: a half-maximal effect (EC50) was put at 53 nM. The same measure, in the same setting: to `O=C(Nc1cncc(-c2ccc3[nH]nc(-c4nc5c(-c6ccc(F)cc6)cncc5[nH]4)c3c2)c1)c1ccccc1` [Compound 104] belongs 7240 nM; to `Fc1ccc(-c2cncc3[nH]c(-c4n[nH]c5ccc(-c6cncc(CN7CCCC7)c6)cc45)nc23)cc1` [Compound 107], 75 nM; to `O=C(Nc1cncc(-c2ccc3[nH]nc(-c4nc5c(-c6ccc(F)cc6)cncc5[nH]4)c3c2)c1)C1CCC1` [Compound 111], 50 nM. The same measure, in the same setting: to `CC(C)Nc1cncc(-c2ccc3[nH]nc(-c4nc5c(-c6ccccc6F)cncc5[nH]4)c3c2)c1` [Compound 124] belongs 47 nM. Same read-out and setting: to `Fc1ccccc1-c1cncc2[nH]c(-c3n[nH]c4ccc(-c5cncc(CN6CCCCC6)c5)cc34)nc12` [Compound 127] belongs 138 nM; to `c1cncc(-c2ccc3[nH]nc(-c4nc5c(-c6cccnc6)cncc5[nH]4)c3c2)c1` [Compound 136], 125 nM; to `Cc1ccncc1-c1ccc2[nH]nc(-c3nc4c(-c5ccncc5)cncc4[nH]3)c2c1` [Compound 154], 188 nM. Turning to `c1cc(-c2cncc3[nH]c(-c4n[nH]c5ccc(-c6cncc(CN7CCCC7)c6)cc45)nc23)ccn1` [Compound 163], the EC50 is > 10000 nM. The same measure, in the same setting: to `c1cc(-c2cncc3[nH]c(-c4n[nH]c5ccc(-c6cncc(CN7CCCCC7)c6)cc45)nc23)ccn1` [Compound 164] belongs 433 nM. Compound `O=C(Nc1cncc(-c2ccc3[nH]nc(-c4nc5c(-c6ccncc6)cncc5[nH]4)c3c2)c1)C1CCCC1` [Compound 170] displayed an EC50 of 4690 nM. The same measure, in the same setting: to `c1cc(-c2cncc3[nH]c(-c4n[nH]c5ccc(-c6cncc(CNCC7CCCC7)c6)cc45)nc23)ccn1` [Compound 173] belongs > 10000 nM; to `CCC(=O)Nc1cncc(-c2ccc3[nH]nc(-c4nc5c(-c6ccccn6)cncc5[nH]4)c3c2)c1` [Compound 174], 16 nM; to `c1ccc(-c2cncc3[nH]c(-c4n[nH]c5ccc(-c6cccnc6)cc45)nc23)nc1` [Compound 177], 30 nM.

`CN(C)Cc1cncc(-c2ccc3[nH]nc(-c4nc5c(-c6ccccn6)cncc5[nH]4)c3c2)c1` [Compound 186] returned an EC50 of 1180 nM. Compared with the last compound, the EC50 is about 39-fold higher. On the same count and under the same terms, to `CC(C)CC(=O)Nc1cncc(-c2ccc3[nH]nc(-c4nc5c(N6CCCCC6)cncc5[nH]4)c3c2)c1` [Compound 199] belongs 103 nM; to `Cc1ccncc1-c1ccc2[nH]nc(-c3nc4c(N5CCCCC5)cncc4[nH]3)c2c1` [Compound 202], 1220 nM; to `CC(C)(C)C(=O)Nc1cncc(-c2ccc3[nH]nc(-c4nc5c(N6CCCCC6)cncc5[nH]4)c3c2)c1` [Compound 205], 16 nM. Same read-out and setting: to `c1ncc(-c2ccc3[nH]nc(-c4nc5c(N6CCCCC6)cncc5[nH]4)c3c2)cc1CN1CCCC1` [Compound 211] belongs 311 nM; to `CCCC(=O)Nc1cncc(-c2ccc3[nH]nc(-c4nc5c(N6CCCCC6)cncc5[nH]4)c3c2)c1` [Compound 214], 59 nM; to `O=C(Nc1cncc(-c2ccc3[nH]nc(-c4nc5c(N6CCCCC6)cncc5[nH]4)c3c2)c1)C1CCC1` [Compound 217], 14 nM. As for `CN1CCN(c2cncc3[nH]c(-c4n[nH]c5ccc(-c6cncc(N)c6)cc45)nc23)CC1` [Compound 247], the EC50 was 474 nM. Still for that read-out and setting: to `CN1CCN(c2cncc3[nH]c(-c4n[nH]c5ccc(-c6cncc(NC(=O)Cc7ccccc7)c6)cc45)nc23)CC1` [Compound 252] belongs 750 nM; to `CN1CCN(c2cncc3[nH]c(-c4n[nH]c5ccc(-c6cncc(NC(=O)CC(C)(C)C)c6)cc45)nc23)CC1` [Compound 257], 97 nM; to `CN1CCN(c2cncc3[nH]c(-c4n[nH]c5ccc(-c6cncc(NC(=O)C7CC7)c6)cc45)nc23)CC1` [Compound 260], 295 nM. The compound `CN1CCN(c2cncc3[nH]c(-c4n[nH]c5ccc(-c6cncc(NC(=O)C7CCCCC7)c6)cc45)nc23)CC1` [Compound 263] registered a half-maximal effective concentration (EC50) of 224 nM. The EC50 values of the last two compounds are within 1.5-fold of each other. With `Nc1cncc(-c2ccc3[nH]nc(-c4nc5ccncc5[nH]4)c3c2)c1` [Compound 268], the EC50 was > 10000 nM. Still for that read-out and setting: to `O=C(Cc1ccccc1)Nc1cncc(-c2ccc3[nH]nc(-c4nc5ccncc5[nH]4)c3c2)c1` [Compound 274] belongs > 10000 nM; to `O=C(Nc1cncc(-c2ccc3[nH]nc(-c4nc5ccncc5[nH]4)c3c2)c1)c1ccccc1` [Compound 275], > 10000 nM; to `CC(C)(C)CC(=O)Nc1cncc(-c2ccc3[nH]nc(-c4nc5ccncc5[nH]4)c3c2)c1` [Compound 280], 731 nM. As for `O=C(Nc1cncc(-c2ccc3[nH]nc(-c4nc5ccncc5[nH]4)c3c2)c1)C1CC1` [Compound 283], the EC50 was > 10000 nM. `O=C(Nc1cncc(-c2ccc3[nH]nc(-c4nc5ccncc5[nH]4)c3c2)c1)C1CCCCC1` [Compound 286] returned an EC50 of 827 nM.

The same experiment, now with this note: THP-1 cells, LPS-stimulated; dose-response starting from 10 μM.
With `c1cc(-c2cncc3[nH]c(-c4n[nH]c5ccc(-c6cncc(CN7CCCC7)c6)cc45)nc23)ccn1` [Compound 163], the “percent inhibition of IL-6 at 10 μM” value is recorded as “(30.0%)”.

Consider `c1cc(-c2cncc3[nH]c(-c4n[nH]c5ccc(-c6cncc(CNCC7CCCC7)c6)cc45)nc23)ccn1` [Compound 173], for which the “percent inhibition of IL-6 at 10 μM” value was “(11.7%)”. On to `Nc1cncc(-c2ccc3[nH]nc(-c4nc5ccncc5[nH]4)c3c2)c1` [Compound 268], for which the “percent inhibition of IL-6 at 10 μM” value is “(27.6%)”.

As for `O=C(Cc1ccccc1)Nc1cncc(-c2ccc3[nH]nc(-c4nc5ccncc5[nH]4)c3c2)c1` [Compound 274], the “percent inhibition of IL-6 at 10 μM” value is “(24.1%)”. On the same count and under the same terms, to `O=C(Nc1cncc(-c2ccc3[nH]nc(-c4nc5ccncc5[nH]4)c3c2)c1)c1ccccc1` [Compound 275] belongs “(9.9%)”; to `O=C(Nc1cncc(-c2ccc3[nH]nc(-c4nc5ccncc5[nH]4)c3c2)c1)C1CC1` [Compound 283], “(50.7%)”.
